# Test results reported in ChEMBL document CHEMBL1177829, “A novel organogermanium protected atopic dermatitis induced by oxazolone” (2010).
# Active and inactive are the calls of the source. The rule behind the calls is not given here.
# Legend:
# Mus musculus [1] = assay: Antiinflammatory activity against oxazolone-induced atopic dermatitis in nude mouse assessed as reduction in IgE level at 0.3 to 1.8 % administered topically bid simultaneously with oxazolone qd for 10 days following 5 days post-oxazolone challenge relative to control; type: functional, organism-based
# Mus musculus [2] = assay: Antiinflammatory activity against oxazolone-induced atopic dermatitis in nude mouse assessed as decrease in skin thickness at 0.01 % administered topically bid simultaneously with oxazolone qd for 10 days following 5 days post-oxazolone challenge relative to control; type: functional, organism-based
# Mus musculus [3] = assay: Antiinflammatory activity against oxazolone-induced atopic dermatitis in nude mouse assessed as decrease in transepidermal water loss at 1.8 % administered topically bid simultaneously with oxazolone qd for 10 days following 5 days post-oxazolone challenge relative to control; type: functional, organism-based; set-up: scale not given: the % may be the effect or the level left
# Mus musculus [4] = assay: Antiinflammatory activity against oxazolone-induced atopic dermatitis in nude mouse assessed as infiltration of lymphocytes in dermis at 1.8 % administered topically bid simultaneously with oxazolone qd for 10 days following 5 days post-oxazolone challenge relative to control; type: functional, organism-based
# Mus musculus [5] = assay: Antiinflammatory activity against oxazolone-induced atopic dermatitis in nude mouse assessed as decrease in transepidermal water loss at 0.3 % administered topically bid simultaneously with oxazolone qd for 10 days following 5 days post-oxazolone challenge relative to control; type: functional, organism-based; set-up: scale not given: the % may be the effect or the level left
# Mus musculus [6] = assay: Antiinflammatory activity against oxazolone-induced atopic dermatitis in nude mouse assessed as alleviation of parkeratotic scales at 1.8 % administered topically bid simultaneously with oxazolone qd for 10 days following 5 days post-oxazolone challenge relative to control; type: functional, organism-based
# Mus musculus [7] = assay: Antiinflammatory activity against oxazolone-induced atopic dermatitis in nude mouse assessed as decrease in skin thickness at 0.3 to 1.8 % administered topically bid simultaneously with oxazolone qd for 10 days following 5 days post-oxazolone challenge relative to control; type: functional, organism-based
# Mus musculus [8] = assay: Antiinflammatory activity against oxazolone-induced atopic dermatitis in nude mouse assessed as decrease in transepidermal water loss at 0.01 % administered topically bid simultaneously with oxazolone qd for 10 days following 5 days post-oxazolone challenge relative to control; type: functional; set-up: scale not given: the % may be the effect or the level left
Compound,Activity (Mus musculus [1]),Activity (Mus musculus [2]),Activity (Mus musculus [3]),Activity (Mus musculus [4]),Activity (Mus musculus [5]),Activity (Mus musculus [6]),Activity (Mus musculus [7]),Activity (Mus musculus [8])
"N-((2S)-2-(3,4-dihydroxy-5-oxo-2,5-dihydrofuran-2-yl)-2-hydroxyethyl)-3-(trimethylgermyl)propanamide",Active,Active,39%,Active,6%,Active,Active,–
C[C@H]1C[C@H]2[C@@H]3CCC4=CC(=O)C=C[C@]4(C)[C@@]3(F)[C@@H](O)C[C@]2(C)[C@@]1(O)C(=O)CO [BETAMETHASONE],–,–,–,–,–,–,–,57%
